The values that follow come from ChEMBL document CHEMBL4431324, “Comparative Analysis of Binding Kinetics and Thermodynamics of Dipeptidyl Peptidase-4 Inhibitors and Their Relationship to Structure” (J Med Chem, 2016).

Data set [1] in a line: Lipophilicity, log D of the compound at pH 7.4. The format is physicochemical. The note with it: buffer.
Data set [2] addresses Muscarinic acetylcholine receptor M3 (Homo sapiens, UniProt P20309). Put plainly: Inhibition of M3 receptor (unknown origin).
For data set [3], the target named is T1, Muscarinic acetylcholine receptor M2 (Homo sapiens, UniProt P08172).
T1 sequence (P08172 whole entry): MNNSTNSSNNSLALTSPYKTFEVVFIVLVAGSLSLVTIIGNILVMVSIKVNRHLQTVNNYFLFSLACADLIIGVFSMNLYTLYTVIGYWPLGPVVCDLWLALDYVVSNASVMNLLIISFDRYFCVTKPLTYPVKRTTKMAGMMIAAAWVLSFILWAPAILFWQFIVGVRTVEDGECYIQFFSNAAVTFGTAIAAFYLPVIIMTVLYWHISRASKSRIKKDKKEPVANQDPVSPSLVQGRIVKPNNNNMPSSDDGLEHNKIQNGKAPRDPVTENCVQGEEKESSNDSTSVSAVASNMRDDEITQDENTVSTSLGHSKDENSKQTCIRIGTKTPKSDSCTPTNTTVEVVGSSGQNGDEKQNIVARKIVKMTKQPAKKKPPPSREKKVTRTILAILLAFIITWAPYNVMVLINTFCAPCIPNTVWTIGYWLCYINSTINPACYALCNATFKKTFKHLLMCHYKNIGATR
Put plainly: Inhibition of M2 receptor (unknown origin).

In data set [4] the target is T2, Dipeptidyl peptidase 4 (Homo sapiens, UniProt P27487).
T2 sequence (P27487 whole entry): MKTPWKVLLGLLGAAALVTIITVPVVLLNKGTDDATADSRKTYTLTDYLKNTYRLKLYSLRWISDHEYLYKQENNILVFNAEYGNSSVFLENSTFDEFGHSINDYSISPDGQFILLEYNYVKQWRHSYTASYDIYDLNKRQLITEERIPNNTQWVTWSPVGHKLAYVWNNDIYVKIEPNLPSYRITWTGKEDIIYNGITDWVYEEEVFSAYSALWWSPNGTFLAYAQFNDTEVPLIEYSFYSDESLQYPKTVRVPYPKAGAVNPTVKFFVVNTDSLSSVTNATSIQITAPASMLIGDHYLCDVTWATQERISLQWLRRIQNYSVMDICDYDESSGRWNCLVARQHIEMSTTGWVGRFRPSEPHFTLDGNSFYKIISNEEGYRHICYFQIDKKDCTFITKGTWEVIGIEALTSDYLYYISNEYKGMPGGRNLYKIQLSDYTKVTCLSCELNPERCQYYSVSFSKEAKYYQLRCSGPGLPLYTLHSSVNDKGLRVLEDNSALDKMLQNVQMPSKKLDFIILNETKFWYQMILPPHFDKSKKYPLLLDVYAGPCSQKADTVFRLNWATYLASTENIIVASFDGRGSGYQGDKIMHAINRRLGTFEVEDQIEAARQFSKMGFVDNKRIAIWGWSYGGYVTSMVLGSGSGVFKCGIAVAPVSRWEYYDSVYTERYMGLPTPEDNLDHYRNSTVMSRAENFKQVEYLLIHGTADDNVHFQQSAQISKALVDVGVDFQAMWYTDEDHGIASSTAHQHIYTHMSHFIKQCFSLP
Data set [5] concerns the target T2, Dipeptidyl peptidase 4. This is another data set of the same source.
Description: Binding affinity to human recombinant DPP4 (39 to 766 residues) by surface plasmon resonance analysis
Data set [6] is described as follows: Renal clearance in DPP4 knockout mouse at 0.01 mg/kg, iv. The note with it: in vivo. Type of data set: ADME, organism-based.
Data set [7] can be described thus: Cmax in human plasma at 5 mg. The format is ADME, cell-free. Also on record: dose 5 mg.
Data set [8] in a line: Renal clearance in wild type mouse at 0.01 mg/kg, iv. The format is ADME, organism-based. Particulars: in vivo.

Chain of Muscarinic acetylcholine receptor M3 (P20309 whole entry): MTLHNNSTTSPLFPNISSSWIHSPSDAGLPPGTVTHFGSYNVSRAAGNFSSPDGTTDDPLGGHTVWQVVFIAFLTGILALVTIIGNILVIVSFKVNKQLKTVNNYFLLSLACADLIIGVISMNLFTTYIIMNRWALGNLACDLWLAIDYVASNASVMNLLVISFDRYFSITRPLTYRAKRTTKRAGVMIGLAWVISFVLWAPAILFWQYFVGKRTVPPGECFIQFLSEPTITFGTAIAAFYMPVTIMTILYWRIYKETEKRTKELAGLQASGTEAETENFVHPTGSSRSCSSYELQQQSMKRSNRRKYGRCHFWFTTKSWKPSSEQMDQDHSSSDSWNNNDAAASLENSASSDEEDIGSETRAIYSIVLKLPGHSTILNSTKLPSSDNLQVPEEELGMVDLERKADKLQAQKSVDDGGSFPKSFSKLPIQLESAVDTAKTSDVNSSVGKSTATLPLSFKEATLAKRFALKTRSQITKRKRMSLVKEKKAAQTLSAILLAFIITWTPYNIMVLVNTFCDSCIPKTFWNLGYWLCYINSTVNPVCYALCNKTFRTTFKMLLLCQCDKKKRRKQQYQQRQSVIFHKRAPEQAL

A word on the logD: it is the decadic logarithm of the distribution of all forms, ionised or not, between an organic phase and buffer at a given pH. Higher therefore signals higher lipophilicity. Broadly, the IC50 is the concentration needed to halve the response being measured. For the molecule `CC(C)=CCn1c(N2CCC[C@H](N)C2)nc2c1c(=O)n(CC(=O)c1ccccc1)c(=O)n2C`, the log distribution coefficient (logD) in data set [1] is 0 to 1.6. For the same molecule, the concentration for half-maximal inhibition (IC50) in data set [2] and in data set [3] was 150 nM throughout.

`Cn1c(=O)c2c(nc(N3CCCC(N)C3)n2Cc2ccccc2)n(C)c1=O` (stereo unspecified) returned a logD in data set [1] of 0 to 1.6.

Usually Kd stands for a measure of binding affinity in units of concentration. A lower Kd goes with tighter binding. With `O=c1[nH]c(=O)c2c(nc(N3CCNCC3)n2Cc2ccccc2)[nH]1`, the equilibrium dissociation constant (Kd) on Dipeptidyl peptidase 4 [4] worked out at 246 nM; on Dipeptidyl peptidase 4 [5], 806 nM. The same molecule showed a pH-dependent lipophilicity (logD) in data set [1] of 0 to 1.6.

By Cmax is commonly meant the highest concentration seen after dosing. Turning to `CC#CCn1c(N2CCC[C@@H](N)C2)nc2c1c(=O)n(Cc1nc(C)c3ccccc3n1)c(=O)n2C` [LINAGLIPTIN], the CL was determined as 24.2% in data set [6] and 2.7% in data set [8]. Also, the peak level in data set [7] (Cmax) was 10 nM. In data set [1], the logD lay within 0 to 1.6.
